From US20250368667A1, “USP1 INHIBITOR” (Shanghai Qilu Pharmaceutical Research and Development …, priority 2022, published 2025)
Like-named read-outs stand apart in the source and are kept apart here.

What was measured:
[1] = Pharmacokinetic determination in male Beagle dogs; type: in vivo; details: IV 0.2 mg/kg; for AUC(0-t) / clearance: dog, plasma; for clearance: read-out: CL (overall clearance rate) (converted)
Procedure: Test Example 4 Pharmacokinetic Determination of Compounds of the Present Application in Male Beagle Dogs
Male Beagle dogs were used as test animals. After intravenous injection and oral administration, plasma samples were collected at specific time points. The concentration of the compound in plasma was detected by LC-MS/MS, and the DMPK parameters were calculated to evaluate the pharmacokinetic characteristics of the compound in dog plasma.
Compounds of Table 6 in this application. […] The structural formula of KSQ-4279 is: […]
Male Beagle dogs having a weight of 9 to 13 kg, supplied by Beijing Mars Biotechnology Co., Ltd.
Administration information of the compound in this application: both group IV (intravenous injection group) and group PO (oral administration group) consist of 3 dogs; for group IV, the dosage was 0.2 mg/kg and the administration volume was 0.5 mL/kg; for group PO, the dosage was 3 mg/kg and the administration volume was 3 mL/kg. The administration solvent was 5 vol % DMSO+10 vol % Solutol (Kolliphor HS 15)+85 vol % Saline (physiological saline).
0.5 mL of blood was collected from the head vein in group IV at 0.083, 0.25, 0.5, 1, 2, 4, 8 and 24 hours respectively after administration, and from the head vein in group PO at 0.25, 0.5, 1, 2, 4, 8 and 24 hours respectively after administration. The collected samples were placed in EDTA-K2 test tube; plasma was separated by centrifuging at 2 to 8° C. and 2000 g for 10 minutes, which was then stored at −80° C. until analysis of the samples.
(§1) Dog plasma samples were treated by: • 1) adding 200 μL acetonitrile to 50 μL plasma sample for precipitation, vortex mixing the mixture for 30 seconds, and centrifuging at 4° C. and 3900 rpm for 15 minutes; and • 2) diluting the obtained supernatant with water for 3 folds, and analyzing the concentration of the compounds to be detected by LC/MS/MS.

[2] = tested on: OV0589 Patient-derived Xenograft (PDX); test: Pharmacodynamic experiment of OV0589 patient-derived xenograft (PDX); type: in vivo, Female BALB/c nude mice; details: oral; for TGI % (tumor growth inhibition rate): Day 36, OV0589 PDX in BALB/c nude mice; for inhibitory effect on tumor growth (FIG. 1): OV0589 PDX
Procedure: Test Example 5 Pharmacodynamic Experiment of OV0589 Patient-derived Xenograft (PDX)
Female BALB/c nude mice were used as test animals. After oral administration of the compound of this application, the tumor was measured and weighed regularly, and the tumor growth inhibition and tolerance in different administration groups were investigated. After the investigate, plasma and tumor were collected at a specific time point for pharmacokinetic analysis/pharmacodynamics (PK/PD) analysis.
Tumor-bearing mouse tumor (R10P8) was purchased from Sino-American Crown Biotechnology (Beijing) Co., Ltd. Ubiquityl-PCNA (Lys 164) (D5C7P) mAb antibody was purchased from Cell Siganaling company, and the article number is 13439S. PCNA (PC10) antibody was purchased from Santa Cruz company, and the article number is se-56.
Female BALB/c nude mice having a weight of between 21 and 25 g; supplier: Beijing An Kai Yibo Biotechnology Co., Ltd.
Under a temperature of 20° C. to 26° C. and a humidity of 30% to 70% and alternate illumination day and night, when the tumor (R10P8) of the tumor-bearing mice grew to a diameter of about 1 cm (the tumor size reaches 50 to 800 mm^3), the tumor was collected and cut into tumor blocks of about 2 to 3 mm^3, and the tumor block (R10P8) was inoculated subcutaneously into the right anterior scapula of female BALB/c nude mice. The tumor growth in mice was observed regularly. After 35 days of inoculation, when the tumor (R10P8) grew to an average volume of about 150 mm^3 (the range of enrollment was 86.54 mm^3 to […]), according to the tumor size and the weight of mice, StudyDirector™ (version No. 3.1.399.19, supplied by Studylog System, Inc., S. San Francisco, California, USA) was used for random grouping, and the administration was performed for these groups the next day.
Twelve mice were randomly divided into four groups, namely, G1 to G4. Group G1 is the solvent control group, and the solvent is: 10 vol % DMSO+20 vol % Solutol+70 vol % water+5 vol % DMSO+10 vol % Solutol+85 vol % saline. Group G2 was orally administrated with KSQ4279 at a dosage of 100 mg/kg (npk), and the solvent was 5 vol % DMSO+10 vol % Solutol+85 vol % saline.
The tumor growth in mice was observed regularly, and the tumor volume was measured (see FIG. 1), and the change of body weight of mice was observed regularly (see FIG. 2). After 36 days of administration, plasma and tumor were collected for PK/PD analysis.

NCI-H1693 cells = test: USP1 CTG test: NCI-H1693 cell killing experiment; type: cell-based; details: 6 days, CTG detection, read-out: IC50 (inhibition of NCI-H1693 cells)
Procedure: Test Example 2 USP1 CTG Test Method
NCI-H1693 cell killing experiment was used to verify the biological activity of USP1i compound in vitro.
NCI-H1693 cells were purchased from ATCC (article number: CRL-5866) and cultured in a cell incubator with 5% CO2 (containing 5% CO2 and 95% air by volume) at 37° C.; 1640 complete medium: comprising 94 wt % RPMI-1640 liquid medium (Gibco, article number: 11875-093), 5 wt % FBS (Gibco, article number: 10099-141), and 1 wt % Pen Strep (Gibco, article number: 15070-063): Fluorescent 384-well plate (Perkin Elmer, article number: 6007279); Trypsin (Gibco, article number: 25200056); CTG Buffer (CellTiter-Glo® 2.0 Cell Viability Assay, Promega, article number: G9241).
[formula] • X: Log10 (compound complex concentration); • Y: corresponding response;
Top and Bottom: corresponding response corresponding to the same unit of Y; and it is noted that: • if X is not the logarithm of dosage, data shall be returned and converted; • if any baseline response is subtracted, the Bottom is set as a constant value of 0.0; and fitting the data to get the IC50 value; • wherein the fitting conditions may be adjusted according to the specific conditions of the data; specifically, Constraint conditions of Bottom, TOP and HillSlope may be adjusted appropriately so as to achieve the curve that is most in line with the actual situation.

[3] = Pharmacokinetic determination in male CD1 mice; type: in vivo; details: PO 10 mg/kg, plasma
Procedure: Test Example 3 Pharmacokinetic Determination of the Compound of the Present Application in Male CD1 Mice
Male CD1 mice were used as test animals. After intravenous injection and oral administration, plasma samples were collected at specific time points. The concentration of the compound in plasma was detected by LC-MS/MS, and the parameters of drug metabolism and pharmacokinetics (DMPK) were calculated to evaluate the pharmacokinetic characteristics of the compounds in plasma of mice.
Compounds of Table 5 in this application; the structural formula and preparation method of compound 88 are shown in the above examples. The structural formula of comparative compound 1 is: […]
Male CD1 mice having a weight of between 20 g and 30 g; supplied by Vital River.
Administration of the compound in this application: both group IV (intravenous injection group) and group PO (oral administration group) consist of 3 mice; for group IV, the dosage is 1 mg/kg and the administration volume is 5 mL/kg; and for group PO, the dosage is 10 mg/kg and the administration volume is 10 mL/kg. The administration solvent was 5 vol % DMSO+10 vol % Soltol (Kolliphor HS 15)+85 vol % Saline (physiological saline).
• 0.02 to 0.03 mL of blood was collected from the saphenous vein in group IV at 0.083, 0.25, 0.5, 1, 2, 4, 8 and 24 hours after administration and from the saphenous vein in group PO at 0.25, 0.5, 1, 2, 4, 8 and 24 hours after administration. The collected samples were placed in EDTA-K2 test tube; plasma was separated by centrifuging at 4° C. for […], which was then stored at −80° C. until analysis of the samples.
as §1, with “Mice” for “Dog”, “10” for “50”, “seconds” for “seconds,”, “of” for “of the”

[4] = molecular target: recombinant human His6-USP1/His6-UAF1 composite protein (Homo sapiens (Human), UniProt O94782); test: USP1 enzyme activity detection (Ub-Rho fluorescence); type: biochemical; details: USP1/UAF1, Ub-Rho substrate 300 nM, 1 hour pre-incubation; read-out: IC50 (enzymatic inhibition of USP1)
Sequence of recombinant human His6-USP1/His6-UAF1 composite protein (O94782 whole entry): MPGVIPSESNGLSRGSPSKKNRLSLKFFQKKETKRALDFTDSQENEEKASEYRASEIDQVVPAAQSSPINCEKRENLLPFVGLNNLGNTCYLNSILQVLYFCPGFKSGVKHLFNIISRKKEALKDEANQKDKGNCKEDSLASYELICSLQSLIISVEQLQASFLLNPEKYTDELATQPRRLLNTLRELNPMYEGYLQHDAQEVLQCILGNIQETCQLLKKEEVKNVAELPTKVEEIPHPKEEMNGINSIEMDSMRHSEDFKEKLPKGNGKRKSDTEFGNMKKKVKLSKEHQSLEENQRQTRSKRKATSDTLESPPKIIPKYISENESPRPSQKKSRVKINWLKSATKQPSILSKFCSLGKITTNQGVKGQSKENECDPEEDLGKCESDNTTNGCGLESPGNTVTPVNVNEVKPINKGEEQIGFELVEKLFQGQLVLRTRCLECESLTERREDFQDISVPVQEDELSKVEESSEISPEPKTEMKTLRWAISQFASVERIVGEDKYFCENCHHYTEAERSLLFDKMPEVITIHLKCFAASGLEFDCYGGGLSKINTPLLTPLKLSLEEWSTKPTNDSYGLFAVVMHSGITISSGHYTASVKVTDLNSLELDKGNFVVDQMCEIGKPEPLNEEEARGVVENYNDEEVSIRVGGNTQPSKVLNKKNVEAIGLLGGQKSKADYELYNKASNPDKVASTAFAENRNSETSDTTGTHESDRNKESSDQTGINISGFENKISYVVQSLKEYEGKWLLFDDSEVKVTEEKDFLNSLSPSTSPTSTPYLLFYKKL
Sequence of recombinant human His6-USP1/His6-UAF1 composite protein (Q8TAF3 whole entry partner): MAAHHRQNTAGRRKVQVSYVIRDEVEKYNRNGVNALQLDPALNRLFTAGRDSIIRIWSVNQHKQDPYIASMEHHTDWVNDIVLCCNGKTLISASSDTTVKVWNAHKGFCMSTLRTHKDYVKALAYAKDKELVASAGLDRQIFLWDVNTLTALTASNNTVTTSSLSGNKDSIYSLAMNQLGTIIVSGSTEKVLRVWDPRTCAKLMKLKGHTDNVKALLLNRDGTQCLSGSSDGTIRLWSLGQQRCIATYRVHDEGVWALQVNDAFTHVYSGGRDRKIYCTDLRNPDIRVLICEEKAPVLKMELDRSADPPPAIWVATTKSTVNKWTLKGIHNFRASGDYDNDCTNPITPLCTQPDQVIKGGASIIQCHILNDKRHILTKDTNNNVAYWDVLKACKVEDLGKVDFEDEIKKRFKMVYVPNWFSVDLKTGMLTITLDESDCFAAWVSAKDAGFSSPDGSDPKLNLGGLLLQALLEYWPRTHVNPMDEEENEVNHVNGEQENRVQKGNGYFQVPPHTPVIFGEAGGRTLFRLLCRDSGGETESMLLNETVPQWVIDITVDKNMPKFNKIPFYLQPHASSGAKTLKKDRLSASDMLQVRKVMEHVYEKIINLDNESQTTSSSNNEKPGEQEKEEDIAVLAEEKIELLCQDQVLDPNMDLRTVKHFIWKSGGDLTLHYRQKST
Description: USPli compounds were screened by USP1 enzyme activity detection experiment.
1.1 Experimental materials: recombinant human His6-USP1/His6-UAF1 composite protein. (R&D, catalog number E-568-050): Ubiquitin rhodamine 110 (Ub-Rho) (R&D, catalog number U-555-050); Fluorescent 384-well plate (Perkin Elmer, Art. No. 6007279).
1.2 Test sample: Compounds of table 3 in this application, whose structural formulae and preparation methods are shown in the above examples.
Using Equation (I) to fit data in Excel to obtain the inhibition value;
[formula] • wherein, the maximum signal value represents the luminous signal intensity of the positive control hole without adding the compound of the application; the minimum signal value represents the luminous signal intensity of the negative control hole without enzyme; and the target signal value represents the luminous signal intensity of the Test samples; and • fitting the data in XL-Fit with Equation (II) to obtain IC50 value:
[formula] • wherein Y is the inhibition rate, X is the concentration of the compound; Bottom is the lowest inhibition rate; Top is the highest inhibition rate; and HillSlope is the slope.

With `COc1ncnc(C2CC2)c1-c1ncc2cnn(Cc3ccc(-c4nc(C(F)(F)F)cn4C(C)C)cc3)c2n1` [KSQ-4279, reference compound] the AUC(0-t) [1] was 124 ng·h/mL, the clearance [1] was 28.3 mL/min/kg and the “TGI % (tumor growth inhibition rate)” value ([2]; 100 mg/kg) was 85.7%. For the same compound, the “inhibitory effect on tumor growth (FIG. 1)” value ([2]; 100 mg/kg) was “obviously worse than compound 58 (dosage of 100 mg/kg)”.
With `COc1ncnc(C2CC2)c1-c1ncc2c(n1)n(Cc1ccc(-c3nc(C(F)(F)F)cn3C)cc1)c1nccn21` [Comparative compound 1, reference compound] the IC50 (NCI-H1693 cells; Homo sapiens, 144 h) was 53.7 nM, the Blood concentration [3] was 2246 and the Curve area [3] was 6558.
With `COc1ncnc(C2CC2)c1-c1ncc2c3cn(C)nc3n(Cc3ccc(-c4nc(C(F)(F)F)cn4C(C)C)cc3)c2n1` [Compound 88, 6-(4-cyclopropyl-6-methoxypyrimidin-5-yl)-8-(4-(1-isopropyl-4-(trifluoromethyl)-1H-imidazol-2-yl)benzyl)-2-methyl-2,8-dihydropyrazolo[4′,3′: 4,5]pyrrolo[2,3-d]pyrimidine] the AUC(0-t) [1] was 236 ng·h/mL, the clearance [1] was 15 mL/min/kg and the IC50 [4] was 4.5 nM. For the same compound, the IC50 (NCI-H1693 cells; Homo sapiens, 144 h) was 9.2 nM, the Blood concentration [3] was 4803 and the Curve area [3] was 44062.
In the case of `COc1ncnc(C2CC2)c1-c1ncc2c3ccc(C#N)cc3n(Cc3ccc4c(c3)CCCn3cc(C(F)(F)F)nc3-4)c2n1` [Compound 58], the AUClast [1] is reported as 190 ng·h/mL, the “CL (overall clearance rate)” value [1] is reported as 15.8 mL/min/kg and the IC50 (NCI-H1693 cells) is reported as 13 nM. For the same compound, the “TGI % (tumor growth inhibition rate)” value ([2]; 30 mg/kg) was 97.5%, the “TGI % (tumor growth inhibition rate)” value ([2]; 100 mg/kg) was 107.7% and the “inhibitory effect on tumor growth (FIG. 1)” value ([2]; 100 mg/kg) was “the best inhibitory effect on tumor growth”.
Work on `COc1ncnc(C2CC2)c1-c1ncc2c3c(C#N)cccc3n(Cc3ccc(-c4nc(C(F)(F)F)cn4C)cc3)c2n1` [Compound 39] yielded an IC50 [4] of 29.9 nM.
For `COc1ncnc(C2CC2)c1-c1ncc2c3c(C(N)=O)cccc3n(Cc3ccc(-c4nc(C(F)(F)F)cn4C)cc3)c2n1` [Compound 47], the IC50 [4] was 5.26 nM.
`COc1ncnc(C2CC2)c1-c1ncc2c(n1)n(Cc1ccc(-c3nc(C(F)(F)F)cn3C)cc1)c1nncn21` [Comparative compound 2, reference compound] gave an IC50 (NCI-H1693 cells; Homo sapiens, 144 h) of 174 nM.
For `COc1ncnc(C2CC2)c1-c1ncc2c3ccncc3n(Cc3ccc4c(ccn5cc(C(F)(F)F)nc45)c3)c2n1` [Compound 67], the IC50 [4] was 36.1 nM.
Compound `COc1ncnc(C2CC2)c1-c1ncc2c3cc(F)cnc3n(Cc3ccc(-c4nc(C(F)(F)F)cn4C)cc3)c2n1` [Compound 117] has an IC50 [4] of 3.54 nM.
With `COc1ncnc(C2CC2)c1-c1ncc2c3ccncc3n(Cc3ccc4n3CCCn3cc(C(F)(F)F)nc3-4)c2n1` [Compound 68] the IC50 [4] was 39.2 nM.
Work on `COc1ncnc(C2CC2)c1-c1ncc2c3cnn(C)c3n(Cc3ccc(-c4nc(C(F)(F)F)cn4C(C)C)cc3)c2n1` [Compound 106] yielded an IC50 [4] of 4.56 nM.
`COc1ncnc(C2CC2)c1-c1ncc2c3ccncc3n(Cc3ccc(-c4nc(C(F)(F)F)c(Br)n4C)cc3)c2n1` [Compound 152] showed an IC50 [4] of 11 nM.
Work on `COc1ncnc(C2CC2)c1-c1ncc2c3ccc(C#N)nc3n(Cc3ccc4c(c3)CCCn3cc(C(F)(F)F)nc3-4)c2n1` [Compound 140] yielded an IC50 [4] of 7.29 nM.
